Key:
[1] = molecular target: T1, TRPM8 (transient receptor potential channel M8) (Rattus norvegicus, UniProt Q8R455); assay: agonist; format: cell-based
[2] = molecular target: T1, TRPM8 (transient receptor potential channel M8); assay: aequorin luminescence calcium assay in CHO cells, inhibition of icilin; format: cell-based

T1 sequence (Q8R455 whole entry): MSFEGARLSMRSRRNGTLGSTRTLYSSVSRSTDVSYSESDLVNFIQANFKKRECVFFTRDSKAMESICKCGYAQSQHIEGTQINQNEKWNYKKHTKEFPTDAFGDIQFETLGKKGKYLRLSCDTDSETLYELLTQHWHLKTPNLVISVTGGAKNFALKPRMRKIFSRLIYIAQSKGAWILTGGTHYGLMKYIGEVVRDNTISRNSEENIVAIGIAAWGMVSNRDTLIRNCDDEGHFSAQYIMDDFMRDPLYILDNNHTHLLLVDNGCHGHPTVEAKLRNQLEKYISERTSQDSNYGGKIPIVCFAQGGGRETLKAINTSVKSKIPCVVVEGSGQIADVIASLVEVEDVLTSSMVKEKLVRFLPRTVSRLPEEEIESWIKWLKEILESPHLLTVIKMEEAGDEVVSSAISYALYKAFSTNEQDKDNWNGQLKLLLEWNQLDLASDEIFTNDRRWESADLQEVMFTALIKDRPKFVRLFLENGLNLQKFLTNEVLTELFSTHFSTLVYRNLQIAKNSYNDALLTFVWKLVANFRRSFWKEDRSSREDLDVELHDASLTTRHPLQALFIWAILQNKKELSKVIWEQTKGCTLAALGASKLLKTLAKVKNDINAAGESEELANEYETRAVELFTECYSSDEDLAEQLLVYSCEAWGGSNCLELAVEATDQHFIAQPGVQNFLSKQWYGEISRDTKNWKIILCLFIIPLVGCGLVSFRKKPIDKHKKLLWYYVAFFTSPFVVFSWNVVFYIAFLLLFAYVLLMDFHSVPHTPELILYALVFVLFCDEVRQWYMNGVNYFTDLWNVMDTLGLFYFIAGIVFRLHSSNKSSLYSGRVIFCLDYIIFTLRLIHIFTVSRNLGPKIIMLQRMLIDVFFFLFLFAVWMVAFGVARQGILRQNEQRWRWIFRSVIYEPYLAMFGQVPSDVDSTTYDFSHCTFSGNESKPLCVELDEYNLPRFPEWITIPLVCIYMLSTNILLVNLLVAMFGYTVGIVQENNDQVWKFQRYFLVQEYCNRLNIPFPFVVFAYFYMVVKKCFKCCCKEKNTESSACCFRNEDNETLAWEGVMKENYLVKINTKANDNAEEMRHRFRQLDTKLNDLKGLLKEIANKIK

| Molecule | agonist (1 uM) in aequorin luminescence calcium assay in CHO cells [1] | IC50 [2] |
| --- | --- | --- |
| O=C1NC(c2cccc([N+](=O)[O-])c2)=CCN1c1ccccc1O [icilin] | inhibition of TRPM8 activation by icilin and cold in cultured CHO cells stably transfected with rat TRPM8 channel | – |
| AMG1161 | – | 0.023 ± 0.0009 µM |

Reference: publication PMC4635063 (Cephalalgia : an international journal of headache, 2015)
